Entries after “also recorded” stand apart in the source; their conditions may differ.
How the values were obtained:
[1] = test system: MOLM and K562 TET2 knockdown cells; assay: Culture of TET2 knockdown cell lines; type: cell-based; conditions: preliminary experiments
MOLM13 = assay: Growth suppression / cell survival dose response in leukemia cell lines; type: cell-based; conditions: Homo sapiens, MOLM-13; MOLM13, least TET2 expression
Description: (§1) FIGS. 3A-3G provide graphs showing the In-vitro efficacy of TETi in the elimination of TET2MTcells. A. Leukemia cell lines express different level of TET2. B. Ratio of TET2 expression vs. Lamin C. The dose response curves of cell survival with different concentration of TETi76 D. LD50 plotted against the relative expression of TET2 and C. E. Colony forming abilities of K562 TET2^+/+ and TET2^−/− cells in the presence and absence of TETi76. Data is representative of 3 independent experiment performed separately. F. Colony forming abilities of two independent normal bone marrow cells (NBM) and SIGM5 cells in MethoCult in the presence and absence of TETi76. Data is the summary of three independent experiments performed separately. G. Bone marrow from Tet2^+/+, Tet2^+/− and Tet2^−/− mice were harvested and cultured in MethoCult in the presence or absence of TETi76.
(§2) Efficacy and specificity of TETi. We used established tet2^+/− vs. tet2^−/− mouse models as well as several human myeloid cell lines selected to harbor TET2^MT or to express low level of TET2 to determine the specificity, establish the read out and provide proof of concept for the proposed strategy. […] The IC50 of different cells against TETi76 is inversely correlated with TET-activity (FIG. 3).

SIGM5 = assay: as above; type: cell-based; conditions: Homo sapiens, SIG-M5; SIGM5, least TET2 expression
Description: as §1, §2

HEL01 = assay: as above; type: cell-based, human; conditions: HEL01, high TET2 expressing
Description: as §1, §2

K562 = assay: as above; type: cell-based, human; conditions: K562, high TET2 expressing
Description: as §1, §2

K562 TET2^KO cells = assay: Colony forming assay in TET2 knock-out K562 cells; type: cell-based, human; conditions: K562 TET2^KO vs K562
Description: as §1, §2

[2] = MTD by dose escalation in mice; conditions: mouse, in vivo
Method: To further validate the feasibility of our proposed strategy as a therapeutic principle, we used mixing experiments in which tet2^MT/tet2^WT were co-cultured at fixed ratios to mimic evolving tet2MT clone and the differences in isoform fractions served as read out. In long-term culture of normal marrow from B6Cd45.1 Pep Boy vs. B6CD45.2 mice of tet2^+/− and tet2^−/− genetic background. Marrow cell from 3 mice/group were cultured in 1:2 ratio of tet2^MT/tet2^WT with/without TETi. Over the period of culture TETi effectively eliminated otherwise dominating tet2^+/− cells (FIG. 4). As expected, tet2^MT grew at faster rate in the controls as reflected in the increased ratio >1:1 of tet2^MT/tet2^WT, while TETi treatment selectively eliminated the tet2^MT cells as determined using CD45.1/CD45.2 surface markers on tet2^WT and tet2^MT bone marrow, respectively (FIGS. 4A&B). […] In vivo efficacy of TETi. […] First we determined MTD utilizing a dose escalation in a group of 3 mice each. […] The MTD was determined at 168 mg/kg. […] Once mice were fully recovered as determined by their weight, the ratio of tet2^MT and tet2^WT marrow was confirmed by CD45.1/CD45.2 cytometry prior to treatment. […] Ratio of CD45.2 vs. CD45.1 was determined at different time points (FIGS. 4D&E). […]

tet2^MT clones = assay: In vivo mixed bone marrow transplant, CD45.2 vs CD45.1 ratio; set-up: species or system mice; conditions: 80 mg/kg 5 days/week, irradiated CD45.1 recipients transplanted with mixed marrow
Method: FIGS. 4A-4E provide graphs and images showing the In-vivo efficacy of TETi in the elimination of cells with TET2^MT. […] Tet^mt bone marrow cells were mixed in the ratio of 1:2 with tet2^+/+ bone marrow cells isolated from Pep (CD45.1). The mixed bone marrow cells were treated either with DMSO or with TETi76 in MethoCult™. Cells were isolated and ratio of CD45.1 (Pep, tet2^+/+) and CD45.2 (tet2mt) was determined by flow using antibodies against CD45.1 and CD45.2. B. Tet2^+/− bone marrow cells were mixed in the ratio of 1:2 with Tet2^+/+ in MethoCult with the treatment of DMSO or TETi76. Ratio of Tet2^+/− vs Tet2^+/+ was measured by flow. C. […] Ratio of Tet2^+/− vs Tet2^+/+ was measured by flow. […] CD45.1+ vs. CD45.2+ was serially assessed.
To further validate the feasibility of our proposed strategy as a therapeutic principle, we used mixing experiments in which tet2^MT/tet2^WT were co-cultured at fixed ratios to mimic evolving tet2MT clone and the differences in isoform fractions served as read out. […] As expected, tet2^MT grew at faster rate in the controls as reflected in the increased ratio >1:1 of tet2^MT/tet2^WT, while TETi treatment selectively eliminated the tet2^MT cells as determined using CD45.1/CD45.2 surface markers on tet2^WT and tet2^MT bone marrow, respectively (FIGS. 4A&B). […] First we determined MTD utilizing a dose escalation in a group of 3 mice each. […]

Gulo^−/−Tet2^+/− cells = assay: hmC level in Gulo^−/−Tet2^+/− cells; type: cell-based
Description: We optimized assays to assess the impact of mutation or haploinsufficiency on dioxygenase activity in our laboratory. We deployed 2 independent methods for the quantification of hmC/mC. First, a semi quantitative method of dot blot and second a highly sensitive 2D-UPLCMS method. These methods were used to determine the relative activity of TET2 enzymatic function. We can quantify TET2 dioxygenase activity products in cell lines and patient's bone marrow cells with various types of TET2^MT (FIG. 3E) in genetically modified (retrovirally-transduced TET2 shRNA) K562 and MOLM13 cells and bone marrow from Tet2^−/− and Tet^+/− mice. As expected, haploinsufficiency of TET2 leads to gene-dose dependent decreases in 5hmC and further oxidized products.

SMILES | inhibitory effects compared to cells with scrambled shRNA [1] | IC50 (MOLM13) [µM] | IC50 (SIGM5) [µM] | sensitivity to treatment (HEL01) | sensitivity to treatment (K562) | colony forming, effect of TET2 knock-out on sensitivity (K562 TET2^KO cells) | mortality at MTD [2] | MTD at 3 months ([2]; dose escalation, groups of 3 mice, 5 days a week, weekly dose increments) [mg/kg] | growth of tet2^MT clones in vivo (ratio CD45.2 vs CD45.1) (tet2^MT clones) | levels of TET2 product hmC (Gulo^−/−Tet2^+/− cells)
COC(=O)CCC(=O)C(=O)OC [DMKG] | differential and dose-dependent inhibitory effects |  |  |  |  |  |  |  |  | 
C=C(CC(O)C(=O)OCC)C(=O)OCC (centres unmarked) [TETi76] |  | 9.6 | 11.2 | lowest sensitivity | lowest sensitivity | sensitized these cells to TETi76 | no mortality | 168 | most pronounced against tet2^−/− compared to tet2^+/− genotype; also recorded: prevents clonal expansion Tet2MT cells in vivo | 
O=C1O[C@H]([C@@H](O)CO)C(O)=C1O [vitC, vitamin C] | differential and dose-dependent inhibitory effects |  |  |  |  |  |  |  |  | increases levels of the TET2 product hmC

From patent US11865104B2, “Antitumor TET2 modulating compounds” (THE CLEVELAND CLINIC FOUNDATION, priority 2017, dated 2024)
